Assay results as given in patent publication US6747147B2, “Oxo-azabicyclic compounds” (Warner-Lambert Company, priority 2002, dated 2004).
Where a name gives a salt, the structure may show the parent alone.

Each compound was assayed against T1, catalytic domain of human MMP-13 (Homo sapiens, UniProt P45452) (assay: Inhibition of proteolysis of a thioester peptide substrate by MMP-13). Details: not given.
T1 construct: the catalytic domain of human MMP-13
Assay type: biochemical
Description: Evaluation of the in vitro activity of the MMP-13 inhibitor compounds according to the invention.
The inhibitory activity of the compounds of formula (I) according to the invention with respect to matrix metalloprotease-13 is evaluated by testing the ability of the compounds of the invention to inhibit the proteolysis of a peptide substrate with MMP-13.
The peptide substrate used in the test is the following peptide: Ac-Pro-Leu-Gly-thioester-Leu-Leu-Gly-OEt.
To carry out this test, a reaction medium of 100 μl volume is prepared, containing: 50 mM of HEPES buffer, 10 mM of CaCl2 and 1 mM of 5,5′-dithiobis-(2-nitrobenzoic acid) (DTNB), and 100 μM of substrate, the pH being adjusted to 7.0.
The concentrations of inhibitors present in the test samples range from 100 μM to 0.5 nM.
The IC50 values are calculated from a curve in which the percentage of the catalytic activity relative to the control is represented on the X-axis and the concentration of inhibitor is represented on the Y-axis.
For `O=C(O)c1ccc(Cn2cnc3ccc(C#CCN4CCCCC4)cc3c2=O)cc1` [Example 107, 4-[4-Oxo-6-(3-piperidin-1-yl-prop-1-ynyl)-4H-quinazolin-3-ylmethyl]-benzoic acid trifluoroacetic acid salt], the IC50 was no less than 65000 nM.
With `COC(=O)c1ccc(Cn2cnc3ccc(C#CCc4ccccc4)cc3c2=O)cc1` [Example 9, Methyl 4-[4-Oxo-6-(3-phenyl-prop-1-ynyl)-4H-quinazolin-3-ylmethyl]-benzoate] the IC50 was less than 1000 nM.
`O=c1c2cc(C#CCc3ccccc3)ccc2ncn1Cc1cccc(Cl)c1` [Example 62, 3-(3-Chloro-benzyl)-6-(3-phenyl-prop-1-ynyl)-3H-quinazolin-4-one] was tested, and the IC50 was less than 1000 nM.
`NS(=O)(=O)c1ccc(Cn2cnc3ccc(C#CCc4ccccc4)cc3c2=O)cc1` [Example 59, 4-[4-Oxo-6-(3-phenyl-prop-1-ynyl)-4H-quinazolin-3-ylmethyl]-benzenesulfonamide] gave an IC50 of less than 1000 nM.
Work on `O=c1c2cc(C#CCc3ccccc3)ccc2ncn1Cc1ccc(F)cc1` [Example 8, 3-(4-fluorobenzyl)-6-(3-phenyl-pro-1-ynyl)-3 H-quinazolin-4-one] yielded an IC50 of less than 1000 nM.
For `O=C(O)c1ccc(Cn2cnc3ccc(C#CCN4CCOCC4)cc3c2=O)cc1` [Example 106, 4-[6-(3-Morpholin-4-yl-prop-1-ynyl)-4-oxo-4H-quinazolin-3-ylmethyl]-benzoic acid trifluoroacetic acid salt], the IC50 was no less than 65000 nM.
Compound `N#Cc1ccc(Cn2cnc3ccc(C#CCc4ccccc4)cc3c2=O)cc1` [Example 60, 4-[4-Oxo-6-(3-phenyl-prop-1-ynyl)-4H-quinazolin-3-ylmethyl]-benzonitrile] has an IC50 of less than 1000 nM.

Same assay, conditions: substrate Ac-Pro-Leu-Gly-thioester-Leu-Leu-Gly-OEt 100 μM, pH 7.0, 2.5 nM enzyme; read-out: IC50 values on MMP-13
With `COc1ccc(CNC(=O)c2cc3c(=O)n(Cc4cccc(F)c4)cnc3cn2)cc1` [Example 24, 3-(3-Fluoro-benzyl)-4-oxo-3,4-dihydro-pyrido[3,4-d]pyrimidine-6-carboxylic acid 4-methoxy-benzylamide] the IC50 was less than 1000 nM.
In the case of `COc1ccc(CNC(=O)c2ccc3ncn(Cc4ccc(S(C)(=O)=O)cc4)c(=O)c3c2)cc1` [Example 15], the IC50 is reported as less than 1000 nM.
With `COC(=O)c1ccc(CN2CN(C)c3ccc(C(=O)NCc4ccc(OC)cc4)cc3C2=O)cc1` [Example 6, Methyl 4-[6-(4-Methoxy-benzylcarbamoyl)-1-methyl-4-oxo-1,4-dihydro-2H-quinazolin-3-ylmethyl]-benzoate] the IC50 was less than 1000 nM.
`COc1ccc(CNC(=O)c2ccc3ncn(Cc4ccc(F)c(F)c4)c(=O)c3c2)cc1` [Example 105, 3-(3,4-Difluoro-benzyl)-4-oxo-3,4-dihydro-quinazoline-6-carboxylic acid 4-methoxy-benzylamide] showed an IC50 of less than 1000 nM.
`COc1ccc(CNC(=O)c2ccc3nc(C)n(Cc4ccc(OC)cc4)c(=O)c3c2)cc1` [Example 2, 3-(4-Methoxy-benzyl)-2-methyl-4-oxo-3,4-dihydro-quinazoline-6-carboxylic acid 4-methoxy-benzylamide, hydrochloride] showed an IC50 of less than 1000 nM.
Work on `COc1cccc(CNC(=O)c2ccc3ncn(Cc4ccc(F)cc4)c(=O)c3c2)c1` [Example 14, 3-(4-Fluoro-benzyl)-4-oxo-3,4-dihydro-quinazoline-6-carboxylic acid 3-methoxy-benzylamide] yielded an IC50 of less than 1000 nM.
`COc1ccc(CC#Cc2ccc3ncn(Cc4ccc(C(C)=O)cc4)c(=O)c3c2)cc1` [Example 69, 3-(4-Acetyl-benzyl)-6-[3-(4-methoxy-phenyl)-prop-1-ynyl]-3H-quinazolin-4-one] gave an IC50 of less than 1000 nM.
`O=c1c2cc(C#CCc3ccccc3)ccc2ncn1Cc1ccncc1` [Example 70, 6-(3-Phenyl-prop-1-ynyl)-3-pyridin-4-ylmethyl-3H-quinazolin-4-one] gave an IC50 of less than 1000 nM.
`COc1cccc(CNC(=O)c2ccc3ncn(Cc4ccc(C(=O)O)cc4)c(=O)c3c2)c1` [Example 17, 4-[6-(3-Methoxy-benzylcarbamoyl)-4-oxo-4H-quinazolin-3-ylmethyl]-benzoic acid] was tested, and the IC50 was less than 1000 nM.
Work on `COc1ccc(CNC(=O)c2ccc3ncn(Cc4ccc(S(=O)(=O)N5CCCC5)cc4)c(=O)c3c2)cc1` [Example 16, 4-Oxo-3-[4-(pyrrolidine-1-sulfonyl)-benzyl]-3,4-dihydro-quinazoline-6-carboxylic acid 4-methoxy-benzylamide] yielded an IC50 of less than 1000 nM.
For `CC(=O)Nc1ccc(Cn2cnc3ccc(C#CCc4ccccc4)cc3c2=O)cc1` [Example 67, N-{4-[4-Oxo-6-(3-phenyl-prop-1-ynyl)-4H-quinazolin-3-ylmethyl]-phenyl}-acetamide], the IC50 was less than 1000 nM.
`COc1ccc(CNC(=O)c2ccc3ncn(Cc4ccc(OC)cc4)c(=O)c3c2)cc1` [Example 1, 3-(4-Methoxy-benzyl)-4-oxo-3,4-dihydro-quinazoline-6-carboxylic acid 4-methoxy-benzylamide] gave an IC50 of less than 1000 nM.
`CN1CCN(CC#Cc2ccc3ncn(Cc4ccc(C(=O)O)cc4)c(=O)c3c2)CC1` [Example 108, 4-{6-[3-(4-Methyl-piperazin-1-yl)-prop-1-ynyl]-4-oxo-4H-quinazolin-3-ylmethyl}-benzoic acid trifluoroacetic acid salt] showed an IC50 of no less than 65000 nM.
`COc1ccc(CNC(=O)c2ccc3c(c2)C(=O)N(Cc2ccc(OC)cc2)C(C)(C)N3C)cc1` [Example 4, 3-(4-Methoxy-benzyl)-1,2,2-trimethyl-4-oxo-1,2,3,4-tetrahydro-quinazoline-6-carboxylic acid 4-methoxy-benzylamide] showed an IC50 of less than 1000 nM.
`COc1cc(CNC(=O)c2ccc3ncn(Cc4ccc(F)cc4)c(=O)c3c2)ccn1` [Example 21, 3-(4-Fluoro-benzyl)-4-oxo-3,4-dihydro-quinazoline-6-carboxylic acid (2-methoxy-pyridin-4-ylmethyl)-amide] gave an IC50 of less than 1000 nM.
`COc1cccc(CNC(=O)c2cc3c(=O)n(Cc4cccc(F)c4)cnc3cn2)c1` [Example 23, 3-(3-Fluoro-benzyl)-4-oxo-3,4-dihydro-pyrido[3,4-d]pyrimidine-6-carboxylic acid 3-methoxy-benzylamide] showed an IC50 of less than 1000 nM.
With `COc1ccc(CNC(=O)c2ccc3c(c2)C(=O)N(Cc2ccc(C(=O)O)cc2)CN3C)cc1` [Example 7, 4-[6-(4-Methoxy-benzylcarbamoyl)-1-methyl-4-oxo-1,4-dihydro-2H-quinazolin-3-ylmethyl]-benzoic acid] the IC50 was less than 1000 nM.
In the case of `O=c1c2cc(C#CCc3ccccc3)ccc2ncn1Cc1ccc(F)c(F)c1` [Example 68, 3-(3,4-Difluoro-benzyl)-6-(3-phenyl-prop-1-ynyl)-3H-quinazolin-4-one], the IC50 is reported as less than 1000 nM.
With `COc1ccc(CC#Cc2ccc3ncn(Cc4ccncc4)c(=O)c3c2)cc1` [Example 71, 6-[3-(4-Methoxy-phenyl)-prop-1-ynyl]-3-pyridin-4-ylmethyl-3H-quinazolin-4-one] the IC50 was less than 1000 nM.
Compound `O=C(O)c1ccc(Cn2cnc3ccc(C#CCN4Cc5ccccc5C4)cc3c2=O)cc1` [Example 109, 4-{6-[3-(1,3-Dihydro-isoindol-2-yl)-prop-1-ynyl]-4-oxo-4H-quinazolin-3-ylmethyl}-benzoic acid trifluoroacetic acid] has an IC50 of less than 1000 nM.
`O=c1c2cc(C#CCOc3ccncc3)ccc2ncn1Cc1ccc(F)c(F)c1` [Example 65, 3-(3,4-Difluoro-benzyl)-6-[3-(pyridin-4-yloxy)-prop-1-ynyl]-3H-quinazolin-4-one] gave an IC50 of less than 1000 nM.
With `COc1ccc(CC#Cc2ccc3ncn(Cc4ccc(F)c(F)c4)c(=O)c3c2)cc1` [Example 66, 3-(3,4-Difluoro-benzyl)-6-[3-(4-methoxy-phenyl)-prop-1-ynyl]-3H-quinazolin-4-one] the IC50 was less than 1000 nM.
`COc1ccc(CNC(=O)c2ccc3c(c2)C(=O)N(Cc2ccc(OC)cc2)CN3C)cc1` [Example 3, 3-(4-Methoxy-benzyl)-1-methyl-4-oxo-1,2,3,4-tetrahydro-quinazoline-6-carboxylic acid 4-methoxy-benzylamide] gave an IC50 of less than 1000 nM.
For `COc1ccc(CNC(=O)c2ccc3c(c2)C(=O)N(Cc2ccc(C(=O)O)cc2)CN3)cc1` [Example 5, 4-[6-(4-Methoxy-benzylcarbamoyl)-4-oxo-1,4-dihydro-2H-quinazolin-3-ylmethyl]-benzoic acid], the IC50 was less than 1000 nM.
For `COc1cc(CNC(=O)c2ccc3ncn(Cc4ccc(F)c(F)c4)c(=O)c3c2)ccn1` [Example 104, 3-(3,4-Difluoro-benzyl)-4-oxo-3,4-dihydro-quinazoline-6-carboxylic acid (2-methoxy-pyridin-4-ylmethyl)-amide], the IC50 was less than 1000 nM.
